Experimental data taken from US20050037033A1, “Microbicidal compositions and methods and use” (priority 2003, published 2005).
Read-outs that look alike come from different tables or passages of the source.

Experiments:
[1] = system: Lactobacilli (L. jensii, L. gasseri, L. acidophilus, L. salivarius); assay: Lactobacillus Steers time-kill (TK) assay, all strains; assay type: cell-based
C. glabrata = assay: Aerobe inhibition assay; assay type: cell-based, Candida glabrata; conditions: Nakaseomyces glabratus; 3 strains; read-out: Minimum Inhibitory Concentrations (MICs)
Method: (§1) The aerobic organisms were suspended into saline to the turbidity of the 0.5 McFarland standard, diluted 1:10, pipetted into the wells of the Steers replicator head, and stamped onto the Mueller Hinton agar plates containing the serial dilutions of the antimicrobials.
(§2) The anaerobes were incubated in an anaerobic chamber at 37° C. for 2 days; aerobes were incubated in ambient air at 36° C. for 20h.

[2] = system: Peptostrep asaccharolyticus; assay: Anaerobe inhibition assay; assay type: cell-based; conditions: 2 strains
HSV-2 = HSV-2 viral binding inhibition assay; assay type: cell-based; conditions: Human alphaherpesvirus 2; Vero cells, plaque assay
Method: Confluent Vero cells were incubated with different concentrations of ciclopiroxolamine at 37° C. for 1 hour. 200 pfu of HSV-2 were then added to the cells in the presence of test compound and the cells were incubated at 37° C. for 1 hour. The infected cells were washed with PBS and overlaid with methylcellulose (no drug) for a plaque assay.

HIV-IRF [3] = assay: PV-L assay (virus mixed with compound, then cells, no washing); assay type: cell-based; conditions: Human immunodeficiency virus 1, PM1, Series 1, PV-L: HIV-IRF mixed with compound 1 hour, then PM-1 cells, 8 days, reverse transcriptase activity, read-out: 50% Effective Concentrations (IC50)
Method: PV-L assay: Immobilized virus (HIV-IRF; 10^3 TCID50) was mixed with compound for 1 hour at 37° C. before addition of indicator T cells (PM-1; 10^5/well) and incubated for 8 days (no washing).
(§3) In each of the assays above, viral replication was monitored after 8 days by measuring reverse transcriptase activity.

[4] = system: N. gonorrheae, strain ms11a; assay: Neisseria gonorrhea inhibition assay; assay type: cell-based; conditions: gonococcal agar, overnight, colonies counted
Method: Compound was incorporated into gonococcal agar, the agar/agent mixture was poured on culture dishes and inoculated with N. gonorrheae, strain ms11a (10 μl of each dilution: 10^−1 to 10^−5 of a starting 0.5 Mcfarland solution which is equal to 1.5×10^8 colony forming units (cfu)/ml). The plates were incubated overnight (20-22 hours) and the colonies counted.

spermatozoa = assay: Sperm immobilization assay; assay type: cell-based
Method: To assess sperm-immobilizing activity, compounds were incubated with sperm for 30 seconds in two fold serial dilutions. Those dilutions that immobilized all screened spermatozoa were further diluted several times in buffer and incubated at 37° C., 5% CO2, for 1 h, to verify any possible recovery of motility. Only those dilutions (compound concentrations) that immobilized all spermatozoa with no recovery of motility were considered “positive” and used to calculate the compound's minimum effective concentration (MEC).

[5] = system: C. trachomatis Serovar E elementary bodies; assay: Chlamydia trachomatis inhibition assay; assay type: cell-based
Method: C. trachomatis Serovar E elementary bodies ([…]; 10^4 IFU) were incubated for 4 hours on ice with compound, the mixture was inoculated into HeLa cell monolayers, and incubated for 1 hour. The inoculum was removed, the medium changed and the cells incubated overnight (20-22 hours). The cells were removed, fixed, permeabilized, and the infected cells detected by fluorescently tagged antibody and flow cytometry.

[6] = system: Bacteroides thetaiotaomicron; assay: Anaerobe inhibition assay; assay type: cell-based; conditions: 1 strain, read-out: Minimum Inhibitory Concentrations (MICs)
Method: Working in an anaerobic chamber, the anaerobes were suspended into brucella broth to the turbidity of the 0.5 McFarland standard and pipetted into the wells of the Steers replicator head, removed from the chamber and stamped onto the supplemented Brucella agar plates containing the serial dilutions of the antimicrobials and the growth control plates. The final inoculum was 10^5 cfu/spot.
as §2

Gardnerella vaginalis = assay: Anaerobe inhibition assay; assay type: cell-based; conditions: 2 strains, read-out: Minimum Inhibitory Concentrations (MICs)
HIV-IRF [7] = assay: PC assay (cells pre-treated with compound, washed, then virus); assay type: cell-based; conditions: Human immunodeficiency virus 1, PM1, read-out: 50% Effective Concentrations (IC50)
Method: PC assay: Indicator T cells (PM-1; 10^5/well) were pre-treated with compound for 1 hour at 37° C., compound was removed by washing with 4 volumes of PBS, treated cells were added to immobilized virus (HIV-IRF; 10^3 TCID50) and incubated for 8 days.
as §3

Peptostrep tetradius = assay: Anaerobe inhibition assay; assay type: cell-based; conditions: 1 strain, read-out: Minimum Inhibitory Concentrations (MICs)
E. coli = assay: Aerobe inhibition assay; assay type: cell-based; conditions: 2 strains
Method: as §1, §2

Strep agalactiae = assay: Aerobe inhibition assay; assay type: cell-based; conditions: 2 strains
Method: as §1, §2

Pseudo aerug = assay: Aerobe inhibition assay; assay type: cell-based; conditions: 1 strain, read-out: Minimum Inhibitory Concentrations (MICs)
Method: as §1, §2

Enterococcus faecalis = assay: Aerobe inhibition assay; assay type: cell-based; conditions: 1 strain, read-out: Minimum Inhibitory Concentrations (MICs)
Method: as §1, §2

Pseudo fluorescens = assay: Aerobe inhibition assay; assay type: cell-based; conditions: 1 strain, read-out: Minimum Inhibitory Concentrations (MICs)
Method: as §1, §2

Enterococcus faecium = assay: Aerobe inhibition assay; assay type: cell-based; conditions: 1 strain, read-out: Minimum Inhibitory Concentrations (MICs)
Method: as §1, §2

Listeria monocytogenes = assay: Aerobe inhibition assay; assay type: cell-based; conditions: 2 strains, read-out: Minimum Inhibitory Concentrations (MICs)
Method: as §1, §2

Strep pyogenes = assay: Aerobe inhibition assay; assay type: cell-based; conditions: 2 strains, read-out: Minimum Inhibitory Concentrations (MICs)
Method: as §1, §2

C. albicans = assay: Aerobe inhibition assay; assay type: cell-based; conditions: Candida albicans; 2 strains; read-out: Minimum Inhibitory Concentrations (MICs)
Method: as §1, §2

K1 pneumoniae = assay: Aerobe inhibition assay; assay type: cell-based; conditions: 2 strains
Method: as §1, §2

Prevotella disiens = assay: Anaerobe inhibition assay; assay type: cell-based; conditions: 2 strains, read-out: Minimum Inhibitory Concentrations (MICs)
Prevotella intermedia = assay: Anaerobe inhibition assay; assay type: cell-based; conditions: 2 strains, read-out: Minimum Inhibitory Concentrations (MICs)
Prevotella bivia = assay: Anaerobe inhibition assay; assay type: cell-based; conditions: 2 strains, read-out: Minimum Inhibitory Concentrations (MICs)
[8] = system: Gardnerella vaginalis, Mobiluncus spp., Bacteroides spp., Clostridium perfringes, Fusobacterium nucleatum, Peptostreptococcus spp., Porphyromonas spp., and …; assay: Anaerobe inhibition assay, all anaerobes tested; assay type: cell-based
Staph. aureus = assay: Aerobe inhibition assay; assay type: cell-based, Staphylococcus aureus; conditions: 3 strains
Method: as §1, §2

[9] = read-out: Minimum Inhibitory Concentrations (MICs)

Cc1cc(C2CCCCC2)n(O)c(=O)c1.NCCO [CO, 6-Cyclohexyl-1-hydroxy-4-methyl-2-(1H)-pyridone ethanolamine salt] was tested, and the “effect on lactobacilli (summary in words)” value [1] was “inhibits the growth of lactobacilli but does not kill them”, the MIC (C. glabrata) was 20 µg/mL and the “Minimum Inhibitory Concentrations (MICs)” value [2] was 80 µg/mL. For the same compound, the MIC [2, 9] was 40 µg/mL, the IC50 (HSV-2) was 153 µg/mL and the IC50 (HIV-IRF [3]) was 1.46 µg/mL. The IC50 [4] was 1 µg/mL, the “cytotoxicity towards spermatozoa” value (spermatozoa) was “very little cytotoxicity towards spermatozoa” and the “Sperm immobilization activity, MEC (minimum effective concentration)” value (spermatozoa; 30 seconds incubation with sperm) was “MEC: 1,200-8,800 μg/ml”. For the same compound, the IC50 [5] was 1600 µg/mL, the IC50 ([5]; HeLa cell monolayers, flow cytometry) was 1630 µg/mL and the MIC [6] was 40 µg/mL. For the same compound, the MIC (Gardnerella vaginalis) was 80 µg/mL, the IC50 (HIV-IRF [7]) was 0.96 µg/mL and the MIC (Peptostrep tetradius) was 40 µg/mL. For the same compound, the “Minimum Inhibitory Concentrations (MICs)” value (E. coli) was 80 µg/mL, the MIC (E. coli; Escherichia coli, read-out: Minimum Inhibitory Concentrations (MICs)) was 40 µg/mL and the “Minimum Inhibitory Concentrations (MICs)” value (Strep agalactiae) was 160 µg/mL. For the same compound, the MIC (Strep agalactiae; [9]) was 80 µg/mL, the MIC (Pseudo aerug) was 80 µg/mL and the MIC (Enterococcus faecalis) was 80 µg/mL. The MIC (Pseudo fluorescens) was 160 µg/mL, the MIC (Enterococcus faecium) was 40 µg/mL and the MIC (Listeria monocytogenes) was 40 µg/mL. For the same compound, the MIC (Strep pyogenes) was 80 µg/mL, the MIC (C. albicans) was 20 µg/mL and the “Minimum Inhibitory Concentrations (MICs)” value (K1 pneumoniae) was 80 µg/mL. The MIC (K1 pneumoniae; [9]) was 40 µg/mL, the MIC (Prevotella disiens) was 40 µg/mL and the MIC (Prevotella intermedia) was 40 µg/mL. For the same compound, the MIC (Prevotella bivia) was 40 µg/mL, the “minimal inhibitory concentrations (MICs), range over all anaerobes tested” value [8] was 40 to 80 µg/mL and the “Minimum Inhibitory Concentrations (MICs)” value (Staph. aureus) was 80 µg/mL. It also gave an MIC (Staph. aureus; Staphylococcus aureus, read-out: Minimum Inhibitory Concentrations (MICs)) of 40 µg/mL.
